From patent US20250134861A1, “COMPOSITIONS COMPRISING 5-METHOXY-N,N-DIMETHYLTRYPTAMINE (5-MEO-DMT) FOR USE IN TREATING MENTAL DISORDERS” (GH RESEARCH IRELAND LIMITED, priority 2019, published 2025)

How the values were obtained:
[1] = system: healthy volunteers; test: Clinical trial of inhaled 5-MeO-DMT in healthy volunteers: intensity of the psychedelic effects (PPEQ); type: in vivo, human
Procedure: (§1) The trial consisted of two parts: Part A, where single doses of 5-MeO-DMT dosage amounts of 2 mg, 6 mg, 12 mg and 18 mg were administered; and Part B, where an initial 5-MeO-DMT dosage amount of 6 mg was administered, and then, unless the participant had already experienced a peak psychedelic experience based on the PPEQ or the supervising physician had decided that further dose increases were inappropriate based on observed side effects, further subsequent dosage amounts of 12 mg and 18 mg were administered with about 3 hours in between each administration. […] Pharmacokinetic analysis of 5-MeO-DMT and bufotenine plasma levels was performed at 1 hour and 3 hours after drug administration in Part A, and at 3 hours after drug administration in Part B.
18 participants were recruited into Part A of the study and 4 participants were recruited into Part B. 9 Participants were female and 13 participants were male. Median age was 29 years (range: 19 to 42 years). […]
The Peak Psychedelic Experience Questionnaire (PPEQ) has been developed by the inventor as an improved alternative to the oceanic boundlessness dimension of the ASC and the MEQ30 to allow a simpler and quicker assessment of the intensity of a psychedelic experience. The PPEQ is comprised of three questions, all to be scored from 0 to 100 by marking a Visual Analogue Scale between 0 and 100 mm: • 1. […]

[2] = system: patients with treatment-resistant major depressive disorder; test: Clinical trial of inhaled 5-MeO-DMT in TRD patients: depression severity and psychiatric symptom scales
[3] = Clinical trial of inhaled 5-MeO-DMT in healthy volunteers: 5-MeO-DMT and bufotenine plasma levels; type: in vivo, human
Procedure: as §1

[4] = system: patients with treatment-resistant major depressive disorder; test: Clinical trial of inhaled 5-MeO-DMT in TRD patients: intensity of the psychedelic effects (MEQ30, ASC, PPEQ); type: in vivo, human; conditions: single 12 mg inhaled dose
Procedure: The following questionnaire is applied in situations where the acute psychedelic experience after treatment with 5-MeO-DMT needs to be quantified. At the end of relevant treatment sessions, the patient is handed a paper form and asked to rate the degree to which at any time during that session they experienced any of the phenomena listed below using the scale listed below. The MEQ30 is then computed and the occurrence of a peak psychedelic experience is then evaluated as described under scoring instructions.
The score for each individual subscale is computed by calculating the average score (from the scale of 0 to 5) for the phenomena belonging to the subscale as listed below.
The MEQ30-total score is computed by taking the average response to all phenomena. Patients or probands with a score≥60% of the maximum possible score on each of the four subscales of the MEQ30 are considered to have experienced a “peak psychedelic experience”.
The Peak Psychedelic Experience Questionnaire (PPEQ) has been developed by the inventor as an improved alternative to the oceanic boundlessness dimension of the ASC and the MEQ30 to allow a simpler and quicker assessment of the intensity of a psychedelic experience.

[5] = Patient 1, 2 h after single 12 mg inhaled dose, baseline 1
[6] = Patient 1, 2 h after single 12 mg inhaled dose, baseline 5
[7] = Patient 1, 1 d after single 12 mg inhaled dose, baseline 1
[8] = Patient 1, 1 d after single 12 mg inhaled dose, baseline 5
[9] = Patient 1, 7 d after single 12 mg inhaled dose, baseline 1
[10] = Patient 1, 7 d after single 12 mg inhaled dose, baseline 5
[11] = Patient 2, 2 h after single 12 mg inhaled dose, baseline 5
[12] = Patient 2, 1 d after single 12 mg inhaled dose, baseline 5
[13] = Patient 2, 7 d after single 12 mg inhaled dose, baseline 5
[14] = both patients, after single 12 mg inhaled dose
[15] = both patients, all assessment time points (2 h, 1 d, 7 d) after single 12 mg inhaled dose
[16] = both patients, single 12 mg inhaled dose

COc1ccc2[nH]cc(CCN(C)C)c2c1 [5-MeO-DMT, 5-methoxy-N,N-dimethyltryptamine]
Intensity of the psychedelic experience with dose escalation ([1]; Part B, 6 mg, then 12 mg and 18 mg about 3 hours apart): increased with the increasing dosage amounts in all participants
Onset of the first psychedelic symptoms after the inhalation ([1]; all participants, 2 to 18 mg inhaled): within a few seconds
PGI-I (7-point scale; 1, Very much improved; 2, Much improved; 7, Very much worse) ([2]; Patient 1, 2 h after single 12 mg inhaled dose): 1
BPRS Unusual thought content (1-7) [2, 5]: 1
MADRS suicidal thoughts item (0 to 6) [2, 5]: 0
BPRS Somatic concern (1-7) ([2]; Patient 1, 2 h after single 12 mg inhaled dose, baseline 3): 2
BPRS Tension (1-7) ([2]; Patient 1, 2 h after single 12 mg inhaled dose, baseline 4): 3
BPRS Guilt feelings (1-7) [2, 6]: 1
PGI-S (7-point scale; 1, Normal, not at all ill; 7, Extremely ill) [2, 6]: 1
BPRS Depressive Mood (1-7) ([2]; Patient 1, 2 h after single 12 mg inhaled dose, baseline 6): 2
BPRS Anxiety (1-7) ([2]; Patient 1, 2 h after single 12 mg inhaled dose, baseline 7): 2
MADRS (overall score 0 to 60) ([2]; Patient 1, 2 h after single 12 mg inhaled dose, baseline 31, sleep item carried forward from baseline): 10
BPRS (total, 18 symptoms each rated 1-7) ([2]; Patient 1, 2 h after single 12 mg inhaled dose, baseline 42): 27
C-SSRS Suicidal Ideation (any of the suicidal ideation items present) ([2]; Patient 1, 2 h after single 12 mg inhaled dose, baseline Yes): No
PGI-I (7-point scale; 1, Very much improved; 2, Much improved; 7, Very much worse) ([2]; Patient 1, 1 d after single 12 mg inhaled dose): 1
BPRS Unusual thought content (1-7) [2, 7]: 1
MADRS suicidal thoughts item (0 to 6) [2, 7]: 0
BPRS Somatic concern (1-7) ([2]; Patient 1, 1 d after single 12 mg inhaled dose, baseline 3): 1
BPRS Tension (1-7) ([2]; Patient 1, 1 d after single 12 mg inhaled dose, baseline 4): 1
BPRS Guilt feelings (1-7) [2, 8]: 1
PGI-S (7-point scale; 1, Normal, not at all ill; 7, Extremely ill) [2, 8]: 1
BPRS Depressive Mood (1-7) ([2]; Patient 1, 1 d after single 12 mg inhaled dose, baseline 6): 1
BPRS Anxiety (1-7) ([2]; Patient 1, 1 d after single 12 mg inhaled dose, baseline 7): 1
MADRS (overall score 0 to 60) ([2]; Patient 1, 1 d after single 12 mg inhaled dose, baseline 31): 8
BPRS (total, 18 symptoms each rated 1-7) ([2]; Patient 1, 1 d after single 12 mg inhaled dose, baseline 42): 18
C-SSRS Suicidal Ideation (any of the suicidal ideation items present) ([2]; Patient 1, 1 d after single 12 mg inhaled dose, baseline Yes): No
PGI-I (7-point scale; 1, Very much improved; 2, Much improved; 7, Very much worse) ([2]; Patient 1, 7 d after single 12 mg inhaled dose): 1
BPRS Unusual thought content (1-7) [2, 9]: 1
MADRS suicidal thoughts item (0 to 6) [2, 9]: 0
BPRS Somatic concern (1-7) ([2]; Patient 1, 7 d after single 12 mg inhaled dose, baseline 3): 1
BPRS Tension (1-7) ([2]; Patient 1, 7 d after single 12 mg inhaled dose, baseline 4): 1
BPRS Guilt feelings (1-7) [2, 10]: 1
PGI-S (7-point scale; 1, Normal, not at all ill; 7, Extremely ill) [2, 10]: 1
BPRS Depressive Mood (1-7) ([2]; Patient 1, 7 d after single 12 mg inhaled dose, baseline 6): 1
BPRS Anxiety (1-7) ([2]; Patient 1, 7 d after single 12 mg inhaled dose, baseline 7): 1
MADRS (overall score 0 to 60) ([2]; Patient 1, 7 d after single 12 mg inhaled dose, baseline 31): 3
BPRS (total, 18 symptoms each rated 1-7) ([2]; Patient 1, 7 d after single 12 mg inhaled dose, baseline 42): 18
C-SSRS Suicidal Ideation (any of the suicidal ideation items present) ([2]; Patient 1, 7 d after single 12 mg inhaled dose, baseline Yes): No
PGI-I (7-point scale; 1, Very much improved; 2, Much improved; 7, Very much worse) ([2]; Patient 2, 2 h after single 12 mg inhaled dose): 2
MADRS suicidal thoughts item (0 to 6) ([2]; Patient 2, 2 h after single 12 mg inhaled dose, baseline 1): 0
BPRS Tension (1-7) ([2]; Patient 2, 2 h after single 12 mg inhaled dose, baseline 3): 1
BPRS Somatic concern (1-7) ([2]; Patient 2, 2 h after single 12 mg inhaled dose, baseline 4): 1
BPRS Anxiety (1-7) [2, 11]: 2
BPRS Depressive Mood (1-7) [2, 11]: 3
BPRS Guilt feelings (1-7) [2, 11]: 1
PGI-S (7-point scale; 1, Normal, not at all ill; 7, Extremely ill) [2, 11]: 1
BPRS Unusual thought content (1-7) ([2]; Patient 2, 2 h after single 12 mg inhaled dose, baseline 6): 1
MADRS (overall score 0 to 60) ([2]; Patient 2, 2 h after single 12 mg inhaled dose, baseline 33, sleep item carried forward from baseline): 9
BPRS (total, 18 symptoms each rated 1-7) ([2]; Patient 2, 2 h after single 12 mg inhaled dose, baseline 45): 26
C-SSRS Suicidal Ideation (any of the suicidal ideation items present) ([2]; Patient 2, 2 h after single 12 mg inhaled dose, baseline No): No
PGI-I (7-point scale; 1, Very much improved; 2, Much improved; 7, Very much worse) ([2]; Patient 2, 1 d after single 12 mg inhaled dose): 2
MADRS suicidal thoughts item (0 to 6) ([2]; Patient 2, 1 d after single 12 mg inhaled dose, baseline 1): 1
BPRS Tension (1-7) ([2]; Patient 2, 1 d after single 12 mg inhaled dose, baseline 3): 1
BPRS Somatic concern (1-7) ([2]; Patient 2, 1 d after single 12 mg inhaled dose, baseline 4): 1
BPRS Anxiety (1-7) [2, 12]: 1
BPRS Depressive Mood (1-7) [2, 12]: 1
BPRS Guilt feelings (1-7) [2, 12]: 1
PGI-S (7-point scale; 1, Normal, not at all ill; 7, Extremely ill) [2, 12]: 1
BPRS Unusual thought content (1-7) ([2]; Patient 2, 1 d after single 12 mg inhaled dose, baseline 6): 1
MADRS (overall score 0 to 60) ([2]; Patient 2, 1 d after single 12 mg inhaled dose, baseline 33): 5
BPRS (total, 18 symptoms each rated 1-7) ([2]; Patient 2, 1 d after single 12 mg inhaled dose, baseline 45): 19
C-SSRS Suicidal Ideation (any of the suicidal ideation items present) ([2]; Patient 2, 1 d after single 12 mg inhaled dose, baseline No): No
PGI-I (7-point scale; 1, Very much improved; 2, Much improved; 7, Very much worse) ([2]; Patient 2, 7 d after single 12 mg inhaled dose): 2
MADRS suicidal thoughts item (0 to 6) ([2]; Patient 2, 7 d after single 12 mg inhaled dose, baseline 1): 0
BPRS Tension (1-7) ([2]; Patient 2, 7 d after single 12 mg inhaled dose, baseline 3): 1
BPRS Somatic concern (1-7) ([2]; Patient 2, 7 d after single 12 mg inhaled dose, baseline 4): 1
BPRS Anxiety (1-7) [2, 13]: 1
BPRS Depressive Mood (1-7) [2, 13]: 1
BPRS Guilt feelings (1-7) [2, 13]: 1
PGI-S (7-point scale; 1, Normal, not at all ill; 7, Extremely ill) [2, 13]: 1
BPRS Unusual thought content (1-7) ([2]; Patient 2, 7 d after single 12 mg inhaled dose, baseline 6): 1
MADRS (overall score 0 to 60) ([2]; Patient 2, 7 d after single 12 mg inhaled dose, baseline 33): 5
BPRS (total, 18 symptoms each rated 1-7) ([2]; Patient 2, 7 d after single 12 mg inhaled dose, baseline 45): 18
C-SSRS Suicidal Ideation (any of the suicidal ideation items present) ([2]; Patient 2, 7 d after single 12 mg inhaled dose, baseline No): No
Other general psychiatric symptoms assessed by the BPRS (somatic concern, anxiety, guilt, tension) [2, 14]: improved
Ratings for suicidality (suicidal thoughts item of the MADRS, C-SSRS Suicidal Ideation items) [2, 14]: improved
MADRS remission (MADRS total score equal or less than 10) [2, 15]: fulfilled standard criteria
MADRS response (at least 50% improvement from baseline) [2, 15]: fulfilled standard criteria
Time to clinical remission after a single administration [2, 16]: ≤ 2 h
Time to clinical response after administration [2, 16]: ≤ 2 h
5-MeO-DMT plasma levels ([3]; Part A and Part B, 3-hour time point, LLOQ of the 5-MeO-DMT assay 0.014 ng/ml): reached the lower level of quantification (LLOQ)
5-MeO-DMT plasma levels ([3]; any dose in Part A, 1-hour timepoint): very low
PPE achieved (ASC: at least 60% of the maximum possible score of the Oceanic Boundlessness dimension) ([4]; Patient 1): Yes
PPE achieved (MEQ30: at least 60% of the maximum possible score in each of the four subscales) ([4]; Patient 1): Yes
PPE achieved (PPEQ Total Score of at least 75) ([4]; Patient 1): Yes
PPE achieved (ASC: at least 60% of the maximum possible score of the Oceanic Boundlessness dimension) ([4]; Patient 2): No
PPE achieved (MEQ30: at least 60% of the maximum possible score in each of the four subscales) ([4]; Patient 2): Yes
PPE achieved (PPEQ Total Score of at least 75) ([4]; Patient 2): Yes
Onset of the first psychedelic symptoms after the inhalation ([4]; both patients): within a few seconds
